From ChEMBL document CHEMBL1201862, “PubChem BioAssay data set” (2004)
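A five-concentration, 48-hour dose response in 96-well plates underlies each endpoint, interpolated linearly between surrounding concentrations. The concentration for 50% growth inhibition is given as GI50.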 Active and inactive are the calls of the source. Cut-off read from the data, not from the text of the source: active = GI50 up to about 1.1 µM and inactive = higher.

Tests used:
Experiment in all cases: inhibition of tumour cell growth, NCI panel, 48 h
[1] = system: CAKI-1
[2] = system: COLO 205
[3] = system: HCT-116
[4] = system: IGROV-1
[5] = system: LOX IMVI
[6] = system: M14
[7] = system: MDA-MB-231
[8] = system: MDA-MB-435
[9] = system: NCI-H23
[10] = system: OVCAR-3
[11] = system: OVCAR-4
[12] = system: OVCAR-5
[13] = system: PC-3
[14] = system: RXF 393
[15] = system: SK-MEL-2
[16] = system: SNB-19
[17] = system: SR
[18] = system: TK-10
[19] = system: UACC-62
[20] = system: HOP-92

SMILES | GI50 [1] | GI50 [2] | GI50 [3] | GI50 [4] | GI50 [5] | GI50 [6] | GI50 [7] | GI50 [8] | GI50 [9] | GI50 [10] | GI50 [11] | GI50 [12] | GI50 [13] | GI50 [14] | GI50 [15] | GI50 [16] | GI50 [17] | GI50 [18] | GI50 [19] | GI50 [20]
CC[C@]12C=CCN3CC[C@@]4(c5cc(Br)c(OC)c([N+](=O)[O-])c5N(C)[C@H]4[C@@](O)(C(=O)OC)[C@@H]1OC(C)=O)[C@@H]32 | 40.3 µM (inactive) | 27.8 µM (inactive) | 45.8 µM (inactive) | 24.1 µM (inactive) | 34.6 µM (inactive) | 55.7 µM (inactive) | > 100 µM (inactive) | 35.1 µM (inactive) | 56.9 µM (inactive) | 34.4 µM (inactive) | 52.8 µM (inactive) | > 100 µM (inactive) | 40.4 µM (inactive) | 98.2 µM (inactive) | 74.1 µM (inactive) | 71.9 µM (inactive) | 25.7 µM (inactive) | > 100 µM (inactive) | > 100 µM (inactive) | 
OCC(O)COCn1cc(Cn2ncc3c(NCc4ccccc4)ncnc32)nn1 (centres undefined) | > 100 µM (inactive) | > 100 µM (inactive) | > 100 µM (inactive) | > 100 µM (inactive) | > 100 µM (inactive) | > 100 µM (inactive) | > 100 µM (inactive) | > 100 µM (inactive) | > 100 µM (inactive) | > 100 µM (inactive) | > 100 µM (inactive) | > 100 µM (inactive) | > 100 µM (inactive) |  | > 100 µM (inactive) | > 100 µM (inactive) | > 100 µM (inactive) | > 100 µM (inactive) | > 100 µM (inactive) | > 100 µM (inactive)
CC12c3c4cc(Br)cc3Oc3cc(Br)cc(c31)Oc1cc(Br)cc(c12)O4 |  | 25.6 µM (inactive) | 17.7 µM (inactive) | 22.8 µM (inactive) | 24.9 µM (inactive) | 35.4 µM (inactive) | 17.8 µM (inactive) | 26.2 µM (inactive) | 57.1 µM (inactive) | 12.4 µM (inactive) | > 100 µM (inactive) | 55.5 µM (inactive) | 21 µM (inactive) |  | 23.1 µM (inactive) | > 100 µM (inactive) | 15.1 µM (inactive) | 41.1 µM (inactive) | 27.7 µM (inactive) | 
COC(=O)/C=C\C(C#N)(C#N)/N=C/c1cccs1 | 1.88 µM (inactive) | 3.68 µM (inactive) | 8.69 µM (inactive) | 15.7 µM (inactive) | 2.34 µM (inactive) | 4.35 µM (inactive) | 1.46 µM (inactive) | 5.16 µM (inactive) | 9.14 µM (inactive) | 11.1 µM (inactive) | 5.82 µM (inactive) | 5.92 µM (inactive) | 13.1 µM (inactive) | 2.51 µM (inactive) | 18.5 µM (inactive) | 30.8 µM (inactive) |  | 1.76 µM (inactive) | 11.6 µM (inactive) | 1.84 µM (inactive)
FC(F)(F)c1ccc(Cc2nc3cc4ccccc4cc3[nH]2)cc1 | 73.3 µM (inactive) | > 100 µM (inactive) | > 100 µM (inactive) | 16 µM (inactive) | 77.8 µM (inactive) | > 100 µM (inactive) | > 100 µM (inactive) | > 100 µM (inactive) | > 100 µM (inactive) | 57.4 µM (inactive) | 31.5 µM (inactive) | > 100 µM (inactive) | > 100 µM (inactive) | 51.6 µM (inactive) | > 100 µM (inactive) | 45.7 µM (inactive) |  | > 100 µM (inactive) | > 100 µM (inactive) | 2.11 µM (inactive)
Nc1cc(CO)cc(Nc2c3ccccc3nc3occc23)c1 | 28.6 µM (inactive) | 28.6 µM (inactive) | 24.8 µM (inactive) | 24.5 µM (inactive) | 36.6 µM (inactive) | 33.6 µM (inactive) | 31.8 µM (inactive) | 10.5 µM (inactive) | 28.9 µM (inactive) | 72.4 µM (inactive) | 17.1 µM (inactive) | > 100 µM (inactive) | 64 µM (inactive) |  | 23.6 µM (inactive) | > 100 µM (inactive) | 3.91 µM (inactive) | 52.6 µM (inactive) | 20.8 µM (inactive) | 29.1 µM (inactive)
CC(C)(CC(=O)Nc1ccccc1)C(=O)O | > 100 µM (inactive) | > 100 µM (inactive) | > 100 µM (inactive) | > 100 µM (inactive) | > 100 µM (inactive) | > 100 µM (inactive) | > 100 µM (inactive) | > 100 µM (inactive) | > 100 µM (inactive) | > 100 µM (inactive) | > 100 µM (inactive) | > 100 µM (inactive) | > 100 µM (inactive) |  | > 100 µM (inactive) | > 100 µM (inactive) | > 100 µM (inactive) | > 100 µM (inactive) | > 100 µM (inactive) | > 100 µM (inactive)
O=[N+]([O-])c1ccccc1S(=O)(=O)c1cc(O)cc2c1NCCC2 | 35.2 µM (inactive) | 17.1 µM (inactive) | 5.78 µM (inactive) | 17.1 µM (inactive) | 14.2 µM (inactive) | 17 µM (inactive) | 18.2 µM (inactive) | 18.8 µM (inactive) | 19.9 µM (inactive) | 7.55 µM (inactive) | 15.3 µM (inactive) | 23 µM (inactive) | 14.7 µM (inactive) | 16.4 µM (inactive) | 23.7 µM (inactive) | 28.5 µM (inactive) |  | 21.4 µM (inactive) | 15.2 µM (inactive) | 0.612 µM (active)
COc1ccc(/C=C2\CCCc3ccccc3C2=O)cc1 | 2.82 µM (inactive) | 0.0904 µM (active) | 0.244 µM (active) | 0.0573 µM (active) | 0.179 µM (active) | 0.0335 µM (active) | 0.201 µM (active) | 0.0154 µM (active) | 0.122 µM (active) | 0.0982 µM (active) | 14.5 µM (inactive) | 0.605 µM (active) | 0.321 µM (active) |  |  | 0.36 µM (active) | 0.452 µM (active) | 9.06 µM (inactive) | 0.0292 µM (active) | 0.893 µM (active)
CCOC(=O)c1c(C)n(-c2ccc(C)cc2)c(=O)c2ccccc2c(=O)c2c(=O)ccc(=O)c1=2 | 14.5 µM (inactive) | 15.2 µM (inactive) | 17.2 µM (inactive) | 37.5 µM (inactive) | 14.7 µM (inactive) | 20.4 µM (inactive) | 16.1 µM (inactive) | 15.3 µM (inactive) | 15.5 µM (inactive) | 16.2 µM (inactive) | 21.4 µM (inactive) | 28.6 µM (inactive) | 17.1 µM (inactive) | 17.4 µM (inactive) | 27 µM (inactive) | 32.2 µM (inactive) |  | 15.5 µM (inactive) | 19.6 µM (inactive) | 16.2 µM (inactive)
N=c1c2ccccc2nc2oc3ccc(Cl)cc3n12 | 11.9 µM (inactive) | 29.4 µM (inactive) | 10.6 µM (inactive) | 16.4 µM (inactive) | 3.21 µM (inactive) | 9.4 µM (inactive) | 25.6 µM (inactive) | 71.3 µM (inactive) | 14.1 µM (inactive) | 13.9 µM (inactive) | 2.77 µM (inactive) | 19.8 µM (inactive) | 33.1 µM (inactive) | 11.9 µM (inactive) | 20.6 µM (inactive) | 8.22 µM (inactive) | 31.9 µM (inactive) | 20 µM (inactive) | 37.7 µM (inactive) | 
CC(C)(C)OC(=O)NCCC1SC2C=CC1C2 (centres undefined) | > 100 µM (inactive) | > 100 µM (inactive) | > 100 µM (inactive) | > 100 µM (inactive) | > 100 µM (inactive) | > 100 µM (inactive) | > 100 µM (inactive) | > 100 µM (inactive) | > 100 µM (inactive) | > 100 µM (inactive) | > 100 µM (inactive) | > 100 µM (inactive) | > 100 µM (inactive) | > 100 µM (inactive) | > 100 µM (inactive) | > 100 µM (inactive) |  | > 100 µM (inactive) | > 100 µM (inactive) | > 100 µM (inactive)
C/C=C1/CN2CCC34c5ccccc5N(C)C23C2CC1C4(C(=O)OC)C(OC(C)=O)O2 (centres undefined) | > 100 µM (inactive) | > 100 µM (inactive) | > 100 µM (inactive) | > 100 µM (inactive) | > 100 µM (inactive) | > 100 µM (inactive) | > 100 µM (inactive) | > 100 µM (inactive) | > 100 µM (inactive) | > 100 µM (inactive) | > 100 µM (inactive) | > 100 µM (inactive) | > 100 µM (inactive) |  | > 100 µM (inactive) | > 100 µM (inactive) | > 100 µM (inactive) | > 100 µM (inactive) | > 100 µM (inactive) | > 100 µM (inactive)
O=C(c1cccs1)N(C(=O)N1CCN(c2ccccc2)CC1)S(=O)(=O)c1ccccc1 | 21.2 µM (inactive) | 16.4 µM (inactive) | 20.2 µM (inactive) |  |  | 17.7 µM (inactive) | 23.1 µM (inactive) | 25.2 µM (inactive) | 24 µM (inactive) | 32.2 µM (inactive) | 34.7 µM (inactive) | 22.7 µM (inactive) | 29 µM (inactive) |  | 18.7 µM (inactive) | 27 µM (inactive) | 21.8 µM (inactive) | 31.8 µM (inactive) | 17.6 µM (inactive) | 22.9 µM (inactive)
CCCC#CCOC(=O)c1cc([N+](=O)[O-])cc([N+](=O)[O-])c1 | > 100 µM (inactive) | > 100 µM (inactive) | > 100 µM (inactive) | > 100 µM (inactive) | > 100 µM (inactive) | > 100 µM (inactive) | > 100 µM (inactive) | 41.4 µM (inactive) | > 100 µM (inactive) | > 100 µM (inactive) |  | > 100 µM (inactive) | > 100 µM (inactive) |  | > 100 µM (inactive) | > 100 µM (inactive) | > 100 µM (inactive) | > 100 µM (inactive) | > 100 µM (inactive) | > 100 µM (inactive)
